# Reference: patent US7737144B2, “Pyrimido[5,4-e][1,2,4]triazine-5-7-diones, processes for preparing them and their use” (Sanofi-Aventis Deutschland GmbH, priority 2003, dated 2010)
# Biological target: T1, recombinant human PTP1B (Homo sapiens, UniProt P18031)
# T1 construct: without the carboxy terminal hydrophobic region (corresponding to 1-299 aa); FLAG (N); made in house; host or cells: Sf9 insect cells (baculovirus, Bac-to-Bac)
# T1 sequence (P18031 1-299): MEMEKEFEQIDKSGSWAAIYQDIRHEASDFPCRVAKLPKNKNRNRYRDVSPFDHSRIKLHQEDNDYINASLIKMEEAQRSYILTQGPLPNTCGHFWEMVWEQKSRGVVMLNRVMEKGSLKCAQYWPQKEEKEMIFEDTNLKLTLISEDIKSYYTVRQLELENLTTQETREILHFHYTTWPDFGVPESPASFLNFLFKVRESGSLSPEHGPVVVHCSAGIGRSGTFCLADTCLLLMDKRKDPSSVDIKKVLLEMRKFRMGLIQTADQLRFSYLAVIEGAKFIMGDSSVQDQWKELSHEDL
# Test: Inhibiting phosphotyrosine phosphatase 1B (PTP1B), in-vitro phosphatase assay
# Assay type: biochemical
# Conditions: Table 2 Biological activity; substrate variant (phosphopeptide, p-nitrophenyl phosphate or DIFMUP) not stated
# Description: Inhibiting Phosphotyrosine Phosphatase 1B (PTP1B)
# The setting up and implementation of an in-vitro assay for detecting a phosphatase-inhibiting effect of the compounds according to the invention are described below. The isolation of the enzyme preparation and the implementation of the assay are described. […]
# This assay is based on releasing phosphate from a consensus substrate peptide which is detected in the nanomolar concentration range using the malachite green/ammonium molybdate method (Lanzetta, P. A., Alvarez, L. J., Reinach, P. S., Candia, O. A. Anal Biochem. 100: 95-97, 1979) as adapted for the microtiter plate format. […] After incubating at 22° C. for 30 min, in order to develop the color, the absorption at 650 nm was determined using a microtiter plate reader (Molecular Devices). Samples and blanks were measured in triplicate. The PTP1B activity was calculated as nanomoles of phosphate released per min and mg of protein using potassium phosphate as the standard. The inhibition of the recombinant hPTP1B by test substances was calculated as percentages of the phosphatase control. […]
smiles,measurement,value
CCCCn1nc(-c2cccc(Oc3ccccc3)c2)nc2c(=O)n(C)c(=O)nc1-2 [compound 5],IC50,5.2 µM
